According to patent US20060019932A1, “Treatment of rheumatoid arthritis by inhibition of pde4” (priority 2002, published 2006):
Read-outs that look alike come from different tables or passages of the source. Each block holds one molecule with its values, some of them ahead of it.

Experiments:
[1] = target: T1, human recombinant phosphodiesterase IVa (met-248) (Homo sapiens, UniProt P27815); assay: SPA based PDE activity assay; format: biochemical
T1 construct: human recombinant phosphodiesterase IVa (met-248); GST; made in house; host or cells: baculovirus/Sf-9
Protocol: Compounds which inhibit the hydrolysis of cAMP to AMP by the type-IV cAMP-specific phosphodiesterases were screened in a 96-well plate format as follows:
In a 96 well-plate at 30° C. the test compound was added (dissolved in 2 μL DMSO), 188 μL of substrate buffer containing [2,8-^3H] adenosine 3′,5′-cyclic phosphate (cAMP, 100 nM to 50 μM), 10 mM MgCl2, 1 mM EDTA, 50 mM Tris, pH 7.5. The reaction was initiated by the addition of human recombinant PDE4 (the amount was controlled so that ˜10% product was formed in 10 min.). The reaction was stopped after 10 min. by the addition of 1 mg of PDE-SPA beads (Amersham Pharmacia Biotech, Inc., Piscataway, N.J.). The product AMP generated was quantified on a Wallac Microbeta® 96-well plate counter (EG&G Wallac Co., Gaithersburg, Md.). The signal in the absence of enzyme was defined as the background. 100% activity was defined as the signal detected in the presence of enzyme and DMSO with the background subtracted. Percentage of inhibition was calculated accordingly. IC50 value was approximated with a non-linear regression fit using the standard 4-parameter/multiple binding sites equation from a ten point titration.

[2] = tested on: collagen-induced arthritis in DBA mice; assay: Collagen-induced arthritis in DBA mice, cumulative score; format: in vivo; conditions: FIG. 1, score against days dosed, comparable to indomethacin
Source text: FIG. 1 is a graphical plot of the cumulative score in collagen-induced arthritis in DBA mice plotted against days dosed for vehicle, Roflumilast, Indomethacin, and Example 1.

[3] = tested on: IL-2; assay: Inhibition of LPS or Con A stimulated human whole blood: IL-2; format: cell-based; conditions: read-out: Inhibition of LPS or Con A stimulate human whole blood, IL-2
Source text: (§1) Rheumatoid arthritis (RA) is a systemic autoimmune disease resulting in progressive joint destruction and associated pain. Three major contributors to its pathology are joint inflammation, abnormal cellular and humoral responses, and synovial hyperplasia. T-lymphocytes (T-cells) and monocytes are the major cell types recovered from the synovial tissue of RA patients and experimental evidence confirms that pro-inflammatory cytokines produced by these cells are the major contributors to joint pathogenesis. The inventors have analyzed human whole blood for the production of various cytokines including Th1 and Th2 cytokines following stimulation with lipoplysaccharide (LPS) and Concanavalin A (ConA) in the presence or absence of PDE4 inhibitors. […] TNF-α sequestrants alone have shown clinical efficacy in RA. Thus, if sufficient levels of inhibition are achieved, PDE4 inhibitor-mediated TNF-α suppression would have efficacy in RA.
(§2) Inhibition of various Th1 and monocyte derived cytokines which may play a role in human rheumatoid arthritis.

[4] = tested on: IFNγ; assay: Inhibition of LPS or Con A stimulated human whole blood: IFNγ; format: cell-based; conditions: read-out: Inhibition of LPS or Con A stimulate human whole blood, IFNγ
Source text: as §1, §2

[5] = tested on: TNF-α; assay: Inhibition of LPS or Con A stimulated human whole blood: TNF-α; format: cell-based; conditions: read-out: Inhibition of LPS or Con A stimulate human whole blood, TNF-α
Source text: as §1
Whole blood provides a protein and cell-rich milieu appropriate for the study of biochemical efficacy of anti-inflammatory compounds such as PDE4-selective inhibitors. […] Upon stimulation with LPS, activated monocytes express and secrete TNF-α up to 8 hours and plasma levels remain stable for 24 hours. […]

[6] = tested on: IL-12; assay: Inhibition of LPS or Con A stimulated human whole blood: IL-12; format: cell-based; conditions: read-out: Inhibition of LPS or Con A stimulate human whole blood, IL-12
Source text: as §1, §2

[7] = tested on: GM-CSF; assay: Inhibition of LPS or Con A stimulated human whole blood: GM-CSF; format: cell-based; conditions: read-out: Inhibition of LPS or Con A stimulate human whole blood, GM-CSF
Source text: as §1, §2

T1 sequence (P27815 248-886): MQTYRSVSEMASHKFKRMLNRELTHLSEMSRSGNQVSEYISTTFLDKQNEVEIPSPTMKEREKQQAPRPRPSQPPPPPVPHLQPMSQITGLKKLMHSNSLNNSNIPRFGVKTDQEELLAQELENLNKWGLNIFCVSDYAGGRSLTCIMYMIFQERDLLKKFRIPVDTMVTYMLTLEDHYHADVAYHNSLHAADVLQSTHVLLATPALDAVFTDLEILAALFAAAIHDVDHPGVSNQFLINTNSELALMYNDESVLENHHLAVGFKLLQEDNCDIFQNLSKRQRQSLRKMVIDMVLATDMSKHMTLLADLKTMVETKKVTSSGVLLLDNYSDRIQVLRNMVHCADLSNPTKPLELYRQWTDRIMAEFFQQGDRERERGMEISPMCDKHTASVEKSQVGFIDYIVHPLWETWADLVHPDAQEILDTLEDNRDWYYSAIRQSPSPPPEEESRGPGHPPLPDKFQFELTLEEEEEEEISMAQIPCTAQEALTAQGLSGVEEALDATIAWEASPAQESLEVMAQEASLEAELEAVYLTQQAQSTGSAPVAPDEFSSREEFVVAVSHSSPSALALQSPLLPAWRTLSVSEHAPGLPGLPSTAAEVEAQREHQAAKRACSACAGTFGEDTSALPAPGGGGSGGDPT

- IC50 ([1]; 100 nM cAMP, purified GST fusion protein of human recombinant PDE IVa (met-248), baculovirus/Sf-9, read-out: IC50): 0.00076 µM
Structure (SMILES): CC(C)NC(=O)/C(=C/c1cccc(-c2cc(C(C)(C)C#N)cc3cccnc23)c1)c1ccc(S(C)(=O)=O)cc1 [Example 1]
- cumulative score in collagen-induced arthritis [2]: low cumulative scores

Structure (SMILES): Cc1c[n+]([O-])ccc1CC(c1ccc(C(O)(C(F)(F)F)C(F)(F)F)cc1)c1ccc(OC(F)F)c(OC(F)F)c1 (stereo not drawn) [Example 2]
- IC50 [1]: 0.00131 µM
- IC50 [3]: 0.3 µM
- IC50 [4]: 0.05 µM
- IC50 [5]: 0.05 µM
- IC50 [6]: 0.13 µM
- IC50 [7]: 0.07 µM

Structure (SMILES): O=C(Nc1c(Cl)cncc1Cl)c1ccc(OC(F)F)c(OCC2CC2)c1 [Roflumilast, N-(3,5-dichloropyrid-4-yl)-3-cyclopropylmethoxy-4-difluoromethoxybenzamide, reference compound]
- cumulative score in collagen-induced arthritis [2]: low cumulative scores
